Source: US20250059171A1 (Hoffmann-La Roche Inc., priority 2021, published 2025)

Tests used:
SARS-CoV-2 3CLpro = SARS-CoV-2 3CLpro (Severe acute respiratory syndrome coronavirus 2, UniProt P0DTD1); assay: biochemical
HCoV-229E 3CLpro = HCoV-229E 3CLpro (Human coronavirus 229E, UniProt P0C6X1); assay: HCoV-229E 3CLpro inhibition assay (FRET); assay type: biochemical
MERS-CoV 3CLpro = MERS-CoV 3CLpro (Middle East respiratory syndrome-related coronavirus, UniProt K9N7C7); assay: biochemical
SARS-CoV 3CLpro = SARS-CoV 3CLpro (Severe acute respiratory syndrome coronavirus, UniProt P0C6X7); assay: biochemical

Sequence of HCoV-229E 3CLpro (P0C6X1 2966-3267): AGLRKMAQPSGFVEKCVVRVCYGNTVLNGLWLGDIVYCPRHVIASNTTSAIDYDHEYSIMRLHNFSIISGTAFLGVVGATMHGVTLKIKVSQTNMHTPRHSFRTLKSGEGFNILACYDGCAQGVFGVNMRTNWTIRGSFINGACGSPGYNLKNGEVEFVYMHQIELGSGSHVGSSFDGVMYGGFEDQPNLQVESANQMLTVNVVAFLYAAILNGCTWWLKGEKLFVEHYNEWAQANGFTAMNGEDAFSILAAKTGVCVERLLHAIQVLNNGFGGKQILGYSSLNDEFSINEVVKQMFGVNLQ
Sequence of MERS-CoV 3CLpro (K9N7C7 3248-3553): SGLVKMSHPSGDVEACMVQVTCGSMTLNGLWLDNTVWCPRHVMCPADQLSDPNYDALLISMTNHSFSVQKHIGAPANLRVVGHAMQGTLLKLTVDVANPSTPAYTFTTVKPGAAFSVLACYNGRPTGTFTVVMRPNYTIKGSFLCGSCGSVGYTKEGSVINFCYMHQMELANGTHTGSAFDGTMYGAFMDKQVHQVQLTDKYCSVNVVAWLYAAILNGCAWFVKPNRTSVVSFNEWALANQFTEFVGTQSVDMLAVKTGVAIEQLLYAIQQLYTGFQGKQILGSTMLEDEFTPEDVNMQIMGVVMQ

Row | Compound | IC50 (SARS-CoV-2 3CLpro) | IC50 (HCoV-229E 3CLpro) | IC50 (MERS-CoV 3CLpro) | IC50 (SARS-CoV 3CLpro)
1 | CC(C)(C)[C@H](NC(=O)[C@@H]1CC1(F)F)C(=O)N1C[C@H]2[C@@H]([C@H]1C(=O)NN(C[C@@H]1CCNC1=O)C(=O)[C@@H](F)Cl)C2(C)C [Example 95, (1S)—N-[(1S)-1-[(1R,2S,5S)-2-[[[(2S)-2-chloro-2-fluoro-acetyl]-[[(3S)-2-oxopyrrolidin-3-yl]methyl]amino]carbamoyl]-6,6-dimethyl-3-azabicyclo[3.1.0]hexane-3-carbonyl]-2,2-dimethyl-propyl]-2,2-difluoro-cyclopropanecarboxamide] | 10 nM | 28 nM | 71 nM | 14 nM
2 | CC(C)(C)[C@H](NC(=O)[C@H]1CC1(F)F)C(=O)N1C[C@H]2[C@@H]([C@H]1C(=O)NN(C[C@@H]1CCNC1=O)C(=O)[C@@H](F)Cl)C2(C)C [Example 96, (1R)—N-[(1S)-1-[(1R,2S,5S)-2-[[[(2S)-2-chloro-2-fluoro-acetyl]-[[(3S)-2-oxopyrrolidin-3-yl]methyl]amino]carbamoyl]-6,6-dimethyl-3-azabicyclo[3.1.0]hexane-3-carbonyl]-2,2-dimethyl-propyl]-2,2-difluoro-cyclopropanecarboxamide] | 11 nM | 25 nM | 63 nM | 14 nM
3 | CC(C)(C)[C@H](NC(=O)C1(F)CCC1)C(=O)N1C[C@@H]2CCC[C@@H]2[C@H]1C(=O)NN(C[C@@H]1CCNC1=O)C(=O)[C@H](F)Cl [Example 97, N-[(1S)-1-[(3S,3aS,6aR)-3-[[[(2R)-2-chloro-2-fluoro-acetyl]-[[(3S)-2-oxopyrrolidin-3-yl]methyl]amino]carbamoyl]-3,3a,4,5,6,6a-hexahydro-1H-cyclopenta[c]pyrrole-2-carbonyl]-2,2-dimethyl-propyl]-1-fluoro-cyclobutanecarboxamide] | 11 nM | 74 nM | 208 nM | 13 nM
4 | CC(C)(C)[C@H](NC(=O)C1CC(F)(F)C1)C(=O)N1C[C@@H]2CCC[C@@H]2[C@H]1C(=O)NN(C[C@@H]1CCNC1=O)C(=O)[C@H](F)Cl [Example 98, N-[(1S)-1-[(3S,3aS,6aR)-3-[[[(2R)-2-chloro-2-fluoro-acetyl]-[[(3S)-2-oxopyrrolidin-3-yl]methyl]amino]carbamoyl]-3,3a,4,5,6,6a-hexahydro-1H-cyclopenta[c]pyrrole-2-carbonyl]-2,2-dimethyl-propyl]-3,3-difluoro-cyclobutanecarboxamide] | 9 nM | 22 nM | 59 nM | 11 nM
5 | CC(C)(C)[C@H](NC(=O)[C@@H]1CC1(F)F)C(=O)N1C[C@@H]2CCC[C@@H]2[C@H]1C(=O)NN(C[C@@H]1CCNC1=O)C(=O)[C@H](F)Cl [Example 99, (1S)—N-[(1S)-1-[(3S,3aS,6aR)-3-[[[(2R)-2-chloro-2-fluoro-acetyl]-[[(3S)-2-oxopyrrolidin-3-yl]methyl]amino]carbamoyl]-3,3a,4,5,6,6a-hexahydro-1H-cyclopenta[c]pyrrole-2-carbonyl]-2,2-dimethyl-propyl]-2,2-difluoro-cyclopropanecarboxamide] | 8 nM | 30 nM | 81 nM | 12 nM
6 | CC(C)(C)[C@H](NC(=O)[C@H]1CC1(F)F)C(=O)N1C[C@@H]2CCC[C@@H]2[C@H]1C(=O)NN(C[C@@H]1CCNC1=O)C(=O)[C@H](F)Cl [Example 100, (1R)—N-[(1S)-1-[(3S,3aS,6aR)-3-[[[(2R)-2-chloro-2-fluoro-acetyl]-[[(3S)-2-oxopyrrolidin-3-yl]methyl]amino]carbamoyl]-3,3a,4,5,6,6a-hexahydro-1H-cyclopenta[c]pyrrole-2-carbonyl]-2,2-dimethyl-propyl]-2,2-difluoro-cyclopropanecarboxamide] | 8 nM | 32 nM | 77 nM | 14 nM
7 | CC(C)(C)[C@H](NC(=O)[C@@H]1CC1(F)F)C(=O)N1C[C@@H]2CCC[C@@H]2[C@H]1C(=O)NN(C[C@@H]1CCNC1=O)C(=O)[C@@H](F)Cl [Example 101, (1S)—N-[(1S)-1-[(3S,3aS,6aR)-3-[[[(2S)-2-chloro-2-fluoro-acetyl]-[[(3S)-2-oxopyrrolidin-3-yl]methyl]amino]carbamoyl]-3,3a,4,5,6,6a-hexahydro-1H-cyclopenta[c]pyrrole-2-carbonyl]-2,2-dimethyl-propyl]-2,2-difluoro-cyclopropanecarboxamide] | 9 nM | 40 nM | 94 nM | 13 nM
8 | CC(C)(C)[C@H](NC(=O)C(F)(F)F)C(=O)N1C[C@@H]2CCC[C@@H]2[C@H]1C(=O)NN(C[C@@H]1CCNC1=O)C(=O)[C@@H](F)Cl [Example 102, N-[(1S)-1-[(3S,3aS,6aR)-3-[[[(2S)-2-chloro-2-fluoro-acetyl]-[[(3S)-2-oxopyrrolidin-3-yl]methyl]amino]carbamoyl]-3,3a,4,5,6,6a-hexahydro-1H-cyclopenta[c]pyrrole-2-carbonyl]-2,2-dimethyl-propyl]-2,2,2-trifluoro-acetamide] | 12 nM | 112 nM | 207 nM | 16 nM
9 | CC(C)(C)[C@H](NC(=O)C1(F)CC1)C(=O)N1C[C@@H]2CCC[C@@H]2[C@H]1C(=O)NN(C[C@@H]1CCNC1=O)C(=O)[C@@H](F)Cl [Example 103, N-[(1S)-1-[(3S,3aS,6aR)-3-[[[(2S)-2-chloro-2-fluoro-acetyl]-[[(3S)-2-oxopyrrolidin-3-yl]methyl]amino]carbamoyl]-3,3a,4,5,6,6a-hexahydro-1H-cyclopenta[c]pyrrole-2-carbonyl]-2,2-dimethyl-propyl]-1-fluoro-cyclopropanecarboxamide] | 13 nM | 167 nM | 372 nM | 25 nM
10 | CC(C)(C)[C@H](NC(=O)[C@H]1CC1(F)F)C(=O)N1C[C@@H]2CCC[C@@H]2[C@H]1C(=O)NN(C[C@@H]1CCNC1=O)C(=O)[C@@H](F)Cl [Example 104, (1R)—N-[(1S)-1-[(3S,3aS,6aR)-3-[[[(2S)-2-chloro-2-fluoro-acetyl]-[[(3S)-2-oxopyrrolidin-3-yl]methyl]amino]carbamoyl]-3,3a,4,5,6,6a-hexahydro-1H-cyclopenta[c]pyrrole-2-carbonyl]-2,2-dimethyl-propyl]-2,2-difluoro-cyclopropanecarboxamide] | 12 nM | 55 nM | 128 nM | 20 nM
11 | CC[C@H](C)[C@H](NC(=O)C1(F)CCC1)C(=O)N1C[C@H]2[C@@H]([C@H]1C(=O)NN(C[C@@H]1CCNC1=O)C(=O)[C@H](F)Cl)C2(C)C [Example 105, N-[(1S,2S)-1-[(1R,2S,5S)-2-[[[(2R)-2-chloro-2-fluoro-acetyl]-[[(3S)-2-oxopyrrolidin-3-yl]methyl]amino]carbamoyl]-6,6-dimethyl-3-azabicyclo[3.1.0]hexane-3-carbonyl]-2-methyl-butyl]-1-fluoro-cyclobutanecarboxamide] | 8 nM | 27 nM | 71 nM | 11 nM
12 | CC[C@H](C)[C@H](NC(=O)C1(F)CC1)C(=O)N1C[C@H]2[C@@H]([C@H]1C(=O)NN(C[C@@H]1CCNC1=O)C(=O)[C@@H](F)Cl)C2(C)C [Example 106, N-[(1S,2S)-1-[(1R,2S,5S)-2-[[[(2S)-2-chloro-2-fluoro-acetyl]-[[(3S)-2-oxopyrrolidin-3-yl]methyl]amino]carbamoyl]-6,6-dimethyl-3-azabicyclo[3.1.0]hexane-3-carbonyl]-2-methyl-butyl]-1-fluoro-cyclopropanecarboxamide] | 33 nM | 66 nM | 179 nM | 57 nM
13 | CC[C@H](C)[C@H](NC(=O)C(F)(F)F)C(=O)N1C[C@H]2[C@@H]([C@H]1C(=O)NN(C[C@@H]1CCNC1=O)C(=O)[C@@H](F)Cl)C2(C)C [Example 107, N-[(1S,2S)-1-[(1R,2S,5S)-2-[[[(2S)-2-chloro-2-fluoro-acetyl]-[[(3S)-2-oxopyrrolidin-3-yl]methyl]amino]carbamoyl]-6,6-dimethyl-3-azabicyclo[3.1.0]hexane-3-carbonyl]-2-methyl-butyl]-2,2,2-trifluoro-acetamide] | 18 nM | 40 nM | 111 nM | 25 nM
14 | CC[C@H](C)[C@H](NC(=O)C1CC(F)(F)C1)C(=O)N1C[C@H]2[C@@H]([C@H]1C(=O)NN(C[C@@H]1CCNC1=O)C(=O)[C@@H](F)Cl)C2(C)C [Example 108, N-[(1S,2S)-1-[(1R,2S,5S)-2-[[[(2S)-2-chloro-2-fluoro-acetyl]-[[(3S)-2-oxopyrrolidin-3-yl]methyl]amino]carbamoyl]-6,6-dimethyl-3-azabicyclo[3.1.0]hexane-3-carbonyl]-2-methyl-butyl]-3,3-difluoro-cyclobutanecarboxamide] | 43 nM | 50 nM | 127 nM | 74 nM
15 | CC[C@H](C)[C@H](NC(=O)C(F)F)C(=O)N1C[C@H]2[C@@H]([C@H]1C(=O)NN(C[C@@H]1CCNC1=O)C(=O)[C@@H](F)Cl)C2(C)C [Example 109, N-[(1S,2S)-1-[(1R,2S,5S)-2-[[[(2S)-2-chloro-2-fluoro-acetyl]-[[(3S)-2-oxopyrrolidin-3-yl]methyl]amino]carbamoyl]-6,6-dimethyl-3-azabicyclo[3.1.0]hexane-3-carbonyl]-2-methyl-butyl]-2,2-difluoro-acetamide] | 14 nM | 29 nM | 86 nM | 20 nM
